SMILES strings stand for the structures. Several values for one entry are separate records, joined by “and”; a condition that tells them apart may be missing. Equal values may be shown once.

The subject of one assay is P7H3. The experiment in a line: Competition ELISA with mAb P7H3. It counts as binding, mouse. Particulars: for IC50: competitor inhibiting binding of P7H3; for inhibition of P7H3 binding: competition ELISA, result in words. As to the method: (§1) In all competition experiments, optimal antigen coating conditions and serum dilutions were determined by direct ELISA. 384-well plates were coated with the minimal amount of antigen required for maximal signal. Sera or mAb supernatants were diluted to obtain 70% binding and a signal of 1.0 to 1.5 O.D. at 0% competition (highest signal). The competitors (NNK and its metabolites (NNAL, NNK-N-ox, NNAL-N-ox, keto acid (1-(3-pyridyl)-1-butanone-4-carboxylic acid), PBCA (1-(3-pyridyl)-1-butanol-4-carboxylic acid), PB (1-(3-pyridyl)-1-butanediol) and HPB (4-hydroxy-1-(3-pyridyl)-1-butanone)), from Toronto Research Chemicals Inc., Canada and Acros Organics, Geel, Belgium) were resuspended in 100% dimethylsulfoxide and stock solutions of […] were frozen at -80°C. Competitors were mixed 1:1 with sera or mAb supernatants to final concentrations of 0 to 512 µM for mAbs or 0 to 1024 µM for serum. Zero (highest signal) and 100% competition (background signal) were determined using no or NNK-C2 as competitor. The difference between these two values corresponds to the dynamic range of the assay. For each competitor concentration, the 50% of inhibitory concentration, IC50 was calculated. Experiments were independently repeated three times and data were analyzed used SigmaStat software. Net OD was calculated by subtraction of the relevant background as described in each figure.
Background: ELISA stands for enzyme-linked immunosorbent assay.

The next assay deals with P9D5. Kind of assay: Competition ELISA with mAb P9D5 on immobilized [NNK-C2]-OVA. It counts as binding, mouse. Particulars: for IC50: competitor inhibiting binding of P9D5 to [NNK-C2]-OVA; for IC50 compared with the one of NNK: P9D5, result in words; for inhibition of P9D5 binding: competition ELISA, result in words. As to the method: as §1
Another assay relates to P9D5 and P7H3. The experiment in a line: Competition ELISA, results stated jointly for both mAbs. The format is binding, mouse. The following applies: for IC50: range over P9D5 and P7H3; for binding of the antibodies: N-oxidation of the pyridyl ring, result in words. The procedure:
as §1

In a further assay the test system is anti-[NNK-C2]-DT sera. The experiment in a line: Competition ELISA with mouse sera on coated [NNK-C2]-OVA. It counts as binding, BALB/c mice. Particulars: for IC50: competitor inhibiting binding of serum antibodies to coated [NNK-C2]-OVA; for specific reactivity of mouse sera: competition ELISA. As to the method:
Specific antibodies were monitored after each injection of [NNK-C2]-DT. […] NNK-specific antibodies were monitored by competition ELISA by adding increasing concentrations of NNK as competitors (0-256µM) (Figure 1) to measure their capacity to inhibit the binding of serum antibodies to coated [NNK-C2]-OVA.
as §1

The next assay has as its system NCI-H82 cells. The experiment in a line: NNK-induced proliferation of NCI-H82 cells (ATP bioluminescence). The following applies: NNK 25 nM, 24h. The format is cell-based, human. The procedure:
NCI-H82 cells were obtained from European Collection of Cell Cultures and maintained in RPMI 1640 with 2 mM L-glutamine (Biowhittaker, Verviers, BE) with the above supplements ("NCI-H82 medium"). Every 2 or 3 days cell medium was renewed. Cells were subcultured once a week. All cultures were mycoplasma-free.
For proliferation experiments, NCI-H82 cells were seeded at a concentration of about 8 x 10^3 cells/well in 200 µl of NCI-H82 medium on collagen type I coated 96-well plates (Greiner Bio-one, Wemmel, BE) and incubated at 37°C and 10% CO2. Proliferation assays were performed at 10% CO2 since CO2 seems to act as a potent messenger molecule for SCLC cells, enhancing the susceptibility of this cancer cell to a host of autocrine and paracrine growth-stimulating signals. After 18h, medium was replaced by fresh NCI-H82 medium containing only 0.15% heat-inactivated fetal bovine serum ("low serum medium") 6h prior NNK treatment. Stock solutions of NNK were prepared in dimethyl sulfoxide. […] Cell proliferation was assessed 24h after treatment using the ViaLightTM HS kit according to the manufacturer's instructions (Cambrex Bioscience, Verviers, BE). Bioluminescence of ATP present in metabolically active cells, was measured on a GENios Plus fluorescence plate reader (Tecan, Mechelen, BE). […]

Turning to `Cc1cccnc1` [3-picoline], the IC50 with P7H3 came out at 320 µM; with P9D5, 400 µM.

Regarding `CCOC(=O)c1cccnc1` [ENAT, ethylnicotinate], the IC50 with P7H3 was 80 µM; in the assay with P9D5, 49 µM; with P9D5 and P7H3, 49 to 80 µM.

For `O=C(CCCO)c1cccnc1` [HPB, 4-hydroxy-1-(3-pyridyl)-1-butanone], the “inhibition of P7H3 binding” value in the assay with P7H3 is given as “moderately inhibited”. Moreover, the IC50 amounted to 80 µM in the assay on anti-[NNK-C2]-DT sera and 50 µM in the assay with P9D5.

Take `O=C(O)c1ccc[n+]([O-])c1` [NIA-N-Ox, nicotinic acid-N-oxide]: the “binding of the antibodies” value in the assay on P9D5 and P7H3 is “totally obliterates binding”.

As for `CN(CCCC(O)c1cccnc1)N=O` (centres unmarked) [NNAL, 4-(methylnitrosamino)-1-(3-pyridyl)-1-butanol], the IC50 in the assay with anti-[NNK-C2]-DT sera was 80 µM; with P9D5 it was 20 µM; in the assay with P9D5 and P7H3 it was 29 to 93 µM.

Turning to `CN(CCCC(O)c1ccc[n+]([O-])c1)N=O` (centres unmarked) [NNAL-N-Ox, 4-(methylnitrosamino)-1-(3-pyridyl-N-oxide)-1-butanol], the “specific reactivity of mouse sera” value in the assay with anti-[NNK-C2]-DT sera is “essentially no specific reactivity was detected”. The “binding of the antibodies” value in the assay on P9D5 and P7H3 was “totally obliterates binding”.

For the compound `CN(CCCC(=O)c1cccnc1)N=O` [NNK, 4-(methylnitrosamino)-1-(3-pyridyl)-1-butanone], the IC50 is 160 µM in the assay on P7H3; 26 µM in the assay on anti-[NNK-C2]-DT sera; 63 µM and 80 µM with P9D5; 80 to 160 µM in the assay with P9D5 and P7H3. The “increase of cell number in comparison to unstimulated control cells” value with NCI-H82 cells is given as 2 to 3 fold.

For the compound `NCCN(CCCC(=O)c1cccnc1)N=O` [NNK-C2, 4-[2-amino-ethyl(nitrosamino)]-1-pyridine-3-yl-butane-1-one], the IC50 with P9D5 is 3.7 µM; in the assay on P9D5 and P7H3 it was 4.4 to 12 µM.

Take `CN(CCCC(=O)c1ccc[n+]([O-])c1)N=O` [NNK-N-Ox, 4-(methylnitrosamino)-1-(3-pyridyl-N-oxide)-1-butanone]: the “specific reactivity of mouse sera” value in the assay with anti-[NNK-C2]-DT sera is “essentially no specific reactivity was detected”. Further, in the assay with P9D5 and P7H3, the “binding of the antibodies” value is on record as “totally obliterates binding”.

As for `OCCCC(O)c1cccnc1` (centres unmarked) [PB, 1-(3-pyridyl)-1-butanediol], the “inhibition of P7H3 binding” value with P7H3 was “moderately inhibited”. Besides, the values for the IC50 with anti-[NNK-C2]-DT sera and in the assay on P9D5 were 230 µM and 72 µM, respectively.

For `O=C(O)CCC(O)c1cccnc1` (centres unmarked) [PBCA, 1-(3-pyridyl)-1-butanol-4 carboxylic acid], the “inhibition of P7H3 binding” value with P7H3 was “moderately inhibited”. Further, in the assay with P9D5, the “IC50 compared with the one of NNK” value is given as “significant increase of the IC50” and the “inhibition of P9D5 binding” value was “moderate inhibition”.

For `O=C(O)CCC(=O)c1cccnc1` [keto acid, 1-(3-pyridyl)-1-butanone-4 carboxylic acid], the “inhibition of P7H3 binding” value with P7H3 was “moderately inhibited”. For the same compound, in the assay on P9D5, the “IC50 compared with the one of NNK” value is “significant increase of the IC50” and the “inhibition of P9D5 binding” value is recorded as “moderate inhibition”.

For orientation: IC50 means the point on the concentration scale where inhibition reaches its midpoint. High values mean a need for much substance, low ones inhibition by little substance.

(Values after EP2016954A1, “Antibodies against 4-(methylnitrosamino)-1-(3-pyridyl)-1-butanone and metabolites thereof” (Muller, Claude P., priority 2007, dated 2009).)
